Results: patent publication US20250197372A1 (priority 2020, published 2025)
pIC50: −log10 of the molar value.

Key:
Format in all cases: biochemical
[1] = biological target: T1, recombinant alpha-glucosidase I (human full-length glucosidase I, Glu 1) (Homo sapiens, UniProt Q13724); test: Alpha-glucosidase I assay (Amplex Red glucose detection, synthetic trisaccharide substrate); details: Glucosidase 1; read-out: Glu 1 IC50
T1 construct: 6-His (C); made in house; host or cells: HEK-293T cells transduced with BacMam virus (virus raised in Sf9)
T1 sequence (Q13724 1-837): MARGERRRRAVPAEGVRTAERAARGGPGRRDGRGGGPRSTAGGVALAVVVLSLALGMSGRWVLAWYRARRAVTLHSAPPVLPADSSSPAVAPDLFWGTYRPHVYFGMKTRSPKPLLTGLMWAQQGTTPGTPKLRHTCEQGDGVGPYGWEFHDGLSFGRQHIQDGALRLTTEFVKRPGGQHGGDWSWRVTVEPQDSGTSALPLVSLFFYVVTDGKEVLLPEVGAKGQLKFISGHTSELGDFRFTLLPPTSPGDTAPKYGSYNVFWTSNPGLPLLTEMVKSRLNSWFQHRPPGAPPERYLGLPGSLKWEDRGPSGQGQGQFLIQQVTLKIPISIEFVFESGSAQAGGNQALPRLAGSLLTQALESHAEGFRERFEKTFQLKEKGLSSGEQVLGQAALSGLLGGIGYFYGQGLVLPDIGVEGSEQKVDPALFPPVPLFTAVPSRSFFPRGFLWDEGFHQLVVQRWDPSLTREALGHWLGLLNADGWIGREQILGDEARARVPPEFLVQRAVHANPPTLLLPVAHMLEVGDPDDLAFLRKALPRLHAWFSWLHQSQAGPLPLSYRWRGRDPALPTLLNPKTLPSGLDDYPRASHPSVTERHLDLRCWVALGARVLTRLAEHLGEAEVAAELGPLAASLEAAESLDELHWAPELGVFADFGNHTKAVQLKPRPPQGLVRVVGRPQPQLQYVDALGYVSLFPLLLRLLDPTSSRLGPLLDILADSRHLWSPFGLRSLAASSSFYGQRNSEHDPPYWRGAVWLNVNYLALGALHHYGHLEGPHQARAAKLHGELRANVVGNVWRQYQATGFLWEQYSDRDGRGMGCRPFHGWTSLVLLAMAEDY
Summary of the method: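 Human full-length glucosidase I, His-tagged, […] and Ni-purified. Enzyme preincubated with compound dilutions 60 min at 37° C, then synthetic trisaccharide substrate 90 min at 37° C; stopped with 1.5M Tris pH 8.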

[2] = biological target: T2, recombinant alpha-glucosidase II (murine full-length glucosidase II, alpha and beta subunits, Glu 2) (Mus musculus, UniProt Q8BHN3); test: Alpha-glucosidase II assay (4-methylumbelliferyl-alpha-D-pyranoside substrate, fluorescence); details: Glucosidase 2; read-out: Glu2 IC50
T2 construct: made in house; host or cells: HEK-293T cells transduced with BacMam viruses (75% alpha, 25% beta); protein harvested from culture supernatant

[3] = biological target: rat maltase (partially purified alpha-glucosidase from intestinal rat powder); test: Intestinal alpha-glucosidase assay, maltose substrate (Glucose GO Kit)
Summary of the method: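 Glucose release is the read-out: compounds at multiple dilutions are first held with partially purified rat intestinal alpha-glucosidase for 60 min at 37 °C, after which maltose or sucrose substrate reacts for 30 min at 37 °C before a 5 min 90 °C stop. IC50 comes from a four-parameter logistic fit.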

[4] = biological target: rat sucrase (partially purified alpha-glucosidase from intestinal rat powder) (Rattus norvegicus, UniProt P23739); test: Intestinal alpha-glucosidase assay, sucrose substrate (Glucose GO Kit)
Summary of the method: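 Rat intestinal enzyme prep + test cpd dilutions, 60 min 37 °C; add maltose (maltase) or sucrose (sucrase), 30 min 37 °C; stop 90 °C 5 min. Glucose readout (glucose oxidase kit). IC50 from 4-PL fit of % inhibition vs conc.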

rat sucrase (partially purified alpha-glucosidase from intestinal rat powder), sequence (P23739 whole entry): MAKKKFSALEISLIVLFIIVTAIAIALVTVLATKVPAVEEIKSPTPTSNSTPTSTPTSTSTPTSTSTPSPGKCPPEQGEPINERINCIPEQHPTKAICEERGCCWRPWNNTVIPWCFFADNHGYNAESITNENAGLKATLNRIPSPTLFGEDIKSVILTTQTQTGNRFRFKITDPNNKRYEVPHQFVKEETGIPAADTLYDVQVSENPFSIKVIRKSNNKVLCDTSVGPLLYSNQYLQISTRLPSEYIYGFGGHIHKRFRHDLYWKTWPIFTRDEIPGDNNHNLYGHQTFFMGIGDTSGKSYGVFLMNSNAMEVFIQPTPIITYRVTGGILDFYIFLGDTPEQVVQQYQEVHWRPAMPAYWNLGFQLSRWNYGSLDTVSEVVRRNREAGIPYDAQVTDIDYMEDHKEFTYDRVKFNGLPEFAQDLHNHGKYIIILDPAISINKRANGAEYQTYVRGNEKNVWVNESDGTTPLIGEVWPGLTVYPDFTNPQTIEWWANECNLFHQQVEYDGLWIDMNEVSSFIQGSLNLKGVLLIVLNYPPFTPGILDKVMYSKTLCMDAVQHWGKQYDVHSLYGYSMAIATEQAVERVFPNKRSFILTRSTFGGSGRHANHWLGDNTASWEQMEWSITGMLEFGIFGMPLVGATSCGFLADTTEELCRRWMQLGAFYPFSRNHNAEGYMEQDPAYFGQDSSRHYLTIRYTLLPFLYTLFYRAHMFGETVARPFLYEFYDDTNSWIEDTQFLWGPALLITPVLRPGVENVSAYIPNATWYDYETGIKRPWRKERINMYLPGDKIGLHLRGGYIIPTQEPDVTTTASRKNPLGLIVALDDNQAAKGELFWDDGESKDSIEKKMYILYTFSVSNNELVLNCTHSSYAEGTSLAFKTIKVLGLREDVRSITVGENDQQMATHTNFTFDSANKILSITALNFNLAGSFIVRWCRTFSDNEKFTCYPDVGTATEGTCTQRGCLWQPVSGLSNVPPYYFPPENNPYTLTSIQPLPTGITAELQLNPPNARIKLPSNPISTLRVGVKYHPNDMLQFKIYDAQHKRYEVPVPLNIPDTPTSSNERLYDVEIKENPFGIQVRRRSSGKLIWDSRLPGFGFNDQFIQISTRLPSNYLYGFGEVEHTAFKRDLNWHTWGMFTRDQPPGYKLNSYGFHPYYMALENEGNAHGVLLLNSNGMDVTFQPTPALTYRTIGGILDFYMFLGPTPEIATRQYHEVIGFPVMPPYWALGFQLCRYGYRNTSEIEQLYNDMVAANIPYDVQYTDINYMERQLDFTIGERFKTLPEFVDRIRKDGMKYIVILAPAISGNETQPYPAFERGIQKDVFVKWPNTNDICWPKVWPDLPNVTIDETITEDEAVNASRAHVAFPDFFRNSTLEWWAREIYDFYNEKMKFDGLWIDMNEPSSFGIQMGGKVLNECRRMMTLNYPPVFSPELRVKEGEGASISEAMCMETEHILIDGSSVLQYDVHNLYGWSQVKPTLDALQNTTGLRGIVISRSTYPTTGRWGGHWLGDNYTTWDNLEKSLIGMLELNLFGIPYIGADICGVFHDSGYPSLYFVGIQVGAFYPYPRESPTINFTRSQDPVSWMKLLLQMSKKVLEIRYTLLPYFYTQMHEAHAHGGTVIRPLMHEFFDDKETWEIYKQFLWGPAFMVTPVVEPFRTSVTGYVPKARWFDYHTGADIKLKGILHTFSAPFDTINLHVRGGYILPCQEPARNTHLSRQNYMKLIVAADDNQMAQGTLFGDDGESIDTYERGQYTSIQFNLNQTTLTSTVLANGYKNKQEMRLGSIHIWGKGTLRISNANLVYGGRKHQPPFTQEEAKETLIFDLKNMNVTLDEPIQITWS
T2 sequence (O08795 15-521): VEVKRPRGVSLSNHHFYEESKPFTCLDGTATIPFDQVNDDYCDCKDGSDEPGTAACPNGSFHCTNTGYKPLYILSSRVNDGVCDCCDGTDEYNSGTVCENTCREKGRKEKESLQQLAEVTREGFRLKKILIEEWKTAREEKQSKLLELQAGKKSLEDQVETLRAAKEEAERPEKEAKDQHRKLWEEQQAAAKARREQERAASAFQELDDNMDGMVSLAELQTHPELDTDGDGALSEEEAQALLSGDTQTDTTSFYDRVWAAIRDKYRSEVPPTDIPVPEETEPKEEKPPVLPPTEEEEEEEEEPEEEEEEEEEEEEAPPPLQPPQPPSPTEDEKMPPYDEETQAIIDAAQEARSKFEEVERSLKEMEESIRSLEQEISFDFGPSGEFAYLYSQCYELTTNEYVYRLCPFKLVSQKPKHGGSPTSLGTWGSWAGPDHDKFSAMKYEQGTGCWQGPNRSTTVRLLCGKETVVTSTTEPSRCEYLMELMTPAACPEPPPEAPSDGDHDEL
T2 sequence (Q8BHN3 33-944): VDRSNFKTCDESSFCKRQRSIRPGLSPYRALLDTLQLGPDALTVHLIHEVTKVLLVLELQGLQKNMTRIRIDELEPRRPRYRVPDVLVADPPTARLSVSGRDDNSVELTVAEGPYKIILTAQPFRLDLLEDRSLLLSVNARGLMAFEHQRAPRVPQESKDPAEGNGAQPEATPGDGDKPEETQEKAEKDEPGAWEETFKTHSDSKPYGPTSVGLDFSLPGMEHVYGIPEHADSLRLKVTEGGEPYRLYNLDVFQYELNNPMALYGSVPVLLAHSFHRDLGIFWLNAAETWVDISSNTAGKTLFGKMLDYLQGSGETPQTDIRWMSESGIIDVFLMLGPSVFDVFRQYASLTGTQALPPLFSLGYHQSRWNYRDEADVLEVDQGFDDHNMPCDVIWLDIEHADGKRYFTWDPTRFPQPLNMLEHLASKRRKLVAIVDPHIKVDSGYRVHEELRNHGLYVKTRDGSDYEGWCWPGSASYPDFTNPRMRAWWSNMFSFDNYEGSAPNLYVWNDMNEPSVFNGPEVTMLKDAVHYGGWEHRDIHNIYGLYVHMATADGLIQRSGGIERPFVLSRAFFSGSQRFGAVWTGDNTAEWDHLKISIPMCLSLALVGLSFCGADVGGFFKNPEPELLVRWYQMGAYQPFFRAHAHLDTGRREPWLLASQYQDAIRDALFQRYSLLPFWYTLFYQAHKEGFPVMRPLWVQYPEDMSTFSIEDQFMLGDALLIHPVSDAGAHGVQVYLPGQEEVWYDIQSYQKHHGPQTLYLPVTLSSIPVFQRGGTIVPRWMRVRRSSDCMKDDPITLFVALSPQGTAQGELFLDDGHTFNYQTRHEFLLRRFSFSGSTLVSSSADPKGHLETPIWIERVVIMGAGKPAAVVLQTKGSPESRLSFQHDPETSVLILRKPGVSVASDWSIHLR

| SMILES | pIC50 [1] | pIC50 [2] | pIC50 [3] | pIC50 [4] |
| --- | --- | --- | --- | --- |
| OC[C@@H]1[C@@H](O)[C@H](O)[C@@H](O)CN1CCc1ccc(CCNc2cc(Cl)cc(-c3noc(C4CCC4)n3)c2)cc1 [Compound 1122, (2R,3R,4R,5S)-1-{2-[4-(2-{[3-chloro-5-(5-cyclobutyl-1,2,4-oxadiazol-3-yl)phenyl]amino}ethyl)phenyl]ethyl}-2-(hydroxymethyl)piperidine-3,4,5-triol] | 5.94 | 6.53 | 6.14 | 5.78 |
| N#Cc1cc(NCc2ccc(CN3C[C@H](O)[C@@H](O)[C@H](O)[C@H]3CO)cc2)cc(-c2ncccn2)c1 [Compound 1065, 3-(pyrimidin-2-yl)-5-{[(4-{[(2R,3R,4R,5S)-3,4,5-trihydroxy-2-(hydroxymethyl)piperidin-1-yl]methyl}phenyl)methyl]amino}-benzonitrile] | 8.05 | 8.22 | 8.52 | 7.43 |
| Cc1cc(NCc2ccc(CN3C[C@H](O)[C@@H](O)[C@H](O)[C@H]3CO)cc2)cc(-c2ncccn2)c1 [Compound 1053, (2R,3R,4R,5S)-2-(hydroxymethyl)-1-{[4-({[3-methyl-5-(pyrimidin-2-yl)phenyl]amino}methyl)phenyl]methyl}piperidine-3,4,5-triol] | 6.98 | 6.86 | 8.70 | 7.64 |
| N#Cc1cc(NCc2ccc(CN3C[C@H](O)[C@@H](O)[C@H](O)[C@H]3CO)cc2)cc(C2=COCCO2)c1 [Compound 1062, 3-(5,6-dihydro-1,4-dioxin-2-yl)-5-{[(4-{[(2R,3R,4R,5S)-3,4,5-trihydroxy-2-(hydroxymethyl)piperidin-1-yl]methyl}phenyl)-methyl]amino}benzonitrile] | 9.00 | > 9.00 | > 9.00 | > 9.00 |
| O=[N+]([O-])c1cc(C2=COCCO2)ccc1NCc1cccc(CN2C[C@H](O)[C@@H](O)[C@H](O)[C@H]2CO)c1 [Compound 1087, (2R,3R,4R,5S)-1-{[3-({[4-(5,6-dihydro-1,4-dioxin-2-yl)-2-nitro-phenyl]amino}methyl)phenyl]methyl}-2-(hydroxymethyl)piperidine-3,4,5-triol] | > 9.00 | 5.09 | 8.40 | > 9.00 |
| O=[N+]([O-])c1cc(-c2ncco2)ccc1NCCc1ccc(CCN2C[C@H](O)[C@@H](O)[C@H](O)[C@H]2CO)cc1 [Compound 1112, (2R,3R,4R,5S)-2-(hydroxymethyl)-1-{2-[4-(2-{[2-nitro-4-(1,3-oxazol-2-yl)phenyl]amino}ethyl)phenyl]ethyl}piperidine-3,4,5-triol] | 7.05 | 7.00 | 9.00 | 6.04 |
| O=[N+]([O-])c1cc(N2CCOCC2)ccc1NCc1ccc(CN2C[C@@H](O)[C@H](O)[C@@H](O)[C@@H]2CO)cc1 (stereo in doubt) [Compound 1069, (2S,3S,4S,5R)-2-(hydroxymethyl)-1-{[4-({[4-(morpholin-4-yl)-2-nitrophenyl]amino}methyl)phenyl]methyl}piperidine-3,4,5-triol] | 7.66 | 8.40 | > 9.00 | 8.10 |
| O=[N+]([O-])c1cc(-c2ccncc2)ccc1NCCc1ccc(CCN2C[C@H](O)[C@@H](O)[C@H](O)[C@H]2CO)cc1 [Compound 1110, (2R,3R,4R,5S)-2-(hydroxymethyl)-1-{2-[4-(2-{[2-nitro-4-(pyridin-4-yl)phenyl]amino}ethyl)phenyl]ethyl}piperidine-3,4,5-triol] | > 9.00 | > 9.00 | > 9.00 | 7.20 |
| O=[N+]([O-])c1cc(-c2ncccn2)ccc1NCCc1ccc(CCN2C[C@H](O)[C@@H](O)[C@H](O)[C@H]2CO)cc1 [Compound 1111, (2R,3R,4R,5S)-2-(hydroxymethyl)-1-{2-[4-(2-{[2-nitro-4-(pyrimidin-2-yl)phenyl]amino}ethyl)phenyl]ethyl}piperidine-3,4,5-triol] | 7.17 | 8.00 | > 9.00 | 6.11 |
